Data reported in patent publication US20090270413A1, “DI-T-BUTYLPHENYL PIPERAZINES AS CALCIUM CHANNEL BLOCKERS” (priority 2008, published 2009).

Columns and labels:
[1] = system: T-type over L-type channels; settings: cited from earlier work
[2] = molecular target: T1, Cav3.1 (T-type channel alpha-1G) (Homo sapiens, UniProt O43497); test: T-type calcium channel voltage-clamp assay, Cav3.1; type: cell-based; settings: read-out: Cav 3.1 IC50
T1 construct: expressed in transfected cells; host or cells: HEK 293
T1 sequence (O43497 whole entry): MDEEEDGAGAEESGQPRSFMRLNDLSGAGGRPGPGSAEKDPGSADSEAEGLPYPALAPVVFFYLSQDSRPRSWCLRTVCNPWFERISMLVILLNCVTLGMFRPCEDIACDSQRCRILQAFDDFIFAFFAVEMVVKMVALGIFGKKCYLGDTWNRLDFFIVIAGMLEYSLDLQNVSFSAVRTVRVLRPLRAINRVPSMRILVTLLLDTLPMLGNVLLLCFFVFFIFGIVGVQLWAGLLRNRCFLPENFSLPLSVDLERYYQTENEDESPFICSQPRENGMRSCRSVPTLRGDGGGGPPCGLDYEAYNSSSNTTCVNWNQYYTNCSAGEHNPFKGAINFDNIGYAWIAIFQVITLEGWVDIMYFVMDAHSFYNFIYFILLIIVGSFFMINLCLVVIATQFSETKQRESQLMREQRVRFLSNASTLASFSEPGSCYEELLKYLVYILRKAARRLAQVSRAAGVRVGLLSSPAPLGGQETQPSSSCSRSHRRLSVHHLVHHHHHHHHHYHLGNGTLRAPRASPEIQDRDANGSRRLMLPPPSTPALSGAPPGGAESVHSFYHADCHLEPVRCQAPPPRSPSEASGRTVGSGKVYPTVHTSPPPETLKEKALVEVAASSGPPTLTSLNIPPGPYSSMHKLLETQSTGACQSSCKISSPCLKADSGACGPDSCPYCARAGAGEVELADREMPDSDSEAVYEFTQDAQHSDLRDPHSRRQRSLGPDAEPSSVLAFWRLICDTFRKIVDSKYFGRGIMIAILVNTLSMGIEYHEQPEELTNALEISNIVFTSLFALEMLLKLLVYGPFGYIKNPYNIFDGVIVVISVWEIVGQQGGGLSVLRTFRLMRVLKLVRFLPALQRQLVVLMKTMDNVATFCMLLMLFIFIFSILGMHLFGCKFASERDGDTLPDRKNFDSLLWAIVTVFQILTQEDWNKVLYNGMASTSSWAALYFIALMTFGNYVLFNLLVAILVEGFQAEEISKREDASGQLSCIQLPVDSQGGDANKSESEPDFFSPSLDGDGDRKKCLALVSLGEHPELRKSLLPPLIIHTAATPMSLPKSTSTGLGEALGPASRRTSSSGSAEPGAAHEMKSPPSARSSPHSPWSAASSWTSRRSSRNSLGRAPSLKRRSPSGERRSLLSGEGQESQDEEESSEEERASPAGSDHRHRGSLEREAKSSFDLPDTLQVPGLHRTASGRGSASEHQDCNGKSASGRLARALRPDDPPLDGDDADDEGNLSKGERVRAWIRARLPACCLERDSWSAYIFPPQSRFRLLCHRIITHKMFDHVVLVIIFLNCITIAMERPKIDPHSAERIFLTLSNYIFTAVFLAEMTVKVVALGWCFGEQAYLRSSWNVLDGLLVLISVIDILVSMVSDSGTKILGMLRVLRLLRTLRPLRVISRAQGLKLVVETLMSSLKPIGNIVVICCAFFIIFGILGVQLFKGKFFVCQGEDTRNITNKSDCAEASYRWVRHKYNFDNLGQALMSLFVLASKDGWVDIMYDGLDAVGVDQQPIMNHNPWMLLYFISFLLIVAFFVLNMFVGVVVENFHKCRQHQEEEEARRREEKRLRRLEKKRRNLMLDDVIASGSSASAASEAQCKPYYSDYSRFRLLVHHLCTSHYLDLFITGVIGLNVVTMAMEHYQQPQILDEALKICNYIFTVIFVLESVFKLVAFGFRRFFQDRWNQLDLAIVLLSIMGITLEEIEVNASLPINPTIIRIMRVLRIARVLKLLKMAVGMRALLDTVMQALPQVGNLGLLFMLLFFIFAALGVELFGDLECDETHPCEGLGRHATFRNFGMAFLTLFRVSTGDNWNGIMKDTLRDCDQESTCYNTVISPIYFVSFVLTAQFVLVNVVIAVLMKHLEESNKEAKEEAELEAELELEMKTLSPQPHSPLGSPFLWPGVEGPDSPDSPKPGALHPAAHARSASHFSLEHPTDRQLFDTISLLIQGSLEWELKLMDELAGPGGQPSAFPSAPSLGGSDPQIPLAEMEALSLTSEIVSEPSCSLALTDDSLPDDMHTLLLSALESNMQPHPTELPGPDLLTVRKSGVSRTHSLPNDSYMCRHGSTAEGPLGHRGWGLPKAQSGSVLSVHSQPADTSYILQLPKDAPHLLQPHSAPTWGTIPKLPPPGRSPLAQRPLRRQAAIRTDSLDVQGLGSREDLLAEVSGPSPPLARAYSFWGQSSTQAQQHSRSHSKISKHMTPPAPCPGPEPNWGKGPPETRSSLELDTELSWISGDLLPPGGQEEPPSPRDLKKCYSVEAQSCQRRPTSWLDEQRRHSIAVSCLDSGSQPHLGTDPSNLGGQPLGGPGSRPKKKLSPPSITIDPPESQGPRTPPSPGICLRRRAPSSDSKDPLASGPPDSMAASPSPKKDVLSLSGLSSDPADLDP
Method: (§1) The T-type calcium channel blocking activity of the compounds of this invention may be readily determined using the methodology well known in the art described by Xia, et al., Assay and Drug Development Tech., 1 (5), 637-645 (2003).
(§2) In a typical experiment ion channel function from HEK 293 cells expressing the T-type channel alpha-1G, H, or I (CaV 3.1, 3.2, 3.3) is recorded to determine the activity of compounds in blocking the calcium current mediated by the T-type channel alpha-1G, H, or I (CaV 3.1, 3.2, 3.3). In this T-type calcium (Ca^2+) antagonist voltage-clamp assay calcium currents are elicited from the resting state of the human alpha-1G, H, or I (CaV 3.1, 3.2, 3.3) calcium channel as follows. Sequence information for T-type (Low-voltage activated) calcium channels are fully disclosed in e.g., U.S. Pat. No. 5,618,720, U.S. Pat. No. 5,686,241, U.S. Pat. No. 5,710,250,U.S. Pat. No. 5,726,035, U.S. Pat. No. 5,792,846, U.S. Pat. No. 5,846,757, U.S. Pat. No. 5,851,824, U.S. Pat. No. 5,874,236, U.S. Pat. No. 5,876,958, U.S. Pat. No. 6,013,474, U.S. Pat. No. 6,057,114, U.S. Pat. No. 6,096,514, WO 99/28342, and J. Neuroscience, 19 (6):1912-1921 (1999). Cells expressing the t-type channels were grown in H3D5 growth media which is comprised DMEM, 6% bovine calf serum (HYCLONE), 30 micromolar Verapamil, 200 microgram/ml Hygromycin B, 1× Penicillin/Streptomycin. Glass pipettes are pulled to a tip diameter of 1-2 micrometer on a pipette puller. The pipettes are filled with the intracellular solution and a chloridized silver wire is inserted along its length, which is then connected to the headstage of the voltage-clamp amplifier. Trypsinization buffer was 0.05% Trypsin, 0.53 mM EDTA. The extracellular recording solution consists of (mM): 130 mM NaCl, 4 mM KCl, 1 mM MgCl2, 2 mM CaCl2, 10 mM HEPES, 30 Glucose, pH 7.4. The internal solution consists of (mM): 135 mM CsMeSO4, 1 MgCl2, 10 CsCl, 5 EGTA, 10 HEPES, pH 7.4, or 135 mM CsCl, 2 MgCl2, 3 MgATP, 2 Na2ATP, 1 Na2GTP, 5 EGTA, 10 HEPES, pH 7.4. Upon insertion of the pipette tip into the bath, the series resistance is noted (acceptable range is between 1-4 megaohm). The junction potential between the pipette and bath solutions is zeroed on the amplifier. The cell is then patched, the patch broken, and, after compensation for series resistance (>=80%), the voltage protocol is applied while recording the whole cell Ca2+ current response. Voltage protocols: (1) −80 mV holding potential every 20 seconds pulse to −20 mV for 40 msec duration; the effectiveness of the drug in inhibiting the current mediated by the channel is measured directly from measuring the reduction in peak current amplitude initiated by the voltage shift from −80 mV to −20 mV; (2). −100 mV holding potential every 15 seconds pulse to −20 mV for 40 msec duration; the effectiveness of the drug in inhibiting the current mediated by the channel is measured directly from measuring the reduction in peak current amplitude initiated by the shift in potential from −100 mV to […]. The difference in block at the two holding potentials was used to determine the effect of drug at differing levels of inactivation induced by the level of resting state potential of the cells. After obtaining control baseline calcium currents, extracellular solutions containing increasing concentrations of a test compound are washed on. Once steady state inhibition at a given compound concentration is reached, a higher concentration of compound is applied. % inhibition of the peak inward control Ca2+ current during the depolarizing step to −20 mV is plotted as a function of compound concentration.

[3] = molecular target: T2, Cav3.2 (T-type channel alpha-1H) (Homo sapiens, UniProt O95180); test: T-type calcium channel voltage-clamp assay, Cav3.2; type: cell-based; settings: read-out: Cav 3.2 IC50
T2 construct: expressed in transfected cells; host or cells: HEK 293
T2 sequence (O95180 whole entry): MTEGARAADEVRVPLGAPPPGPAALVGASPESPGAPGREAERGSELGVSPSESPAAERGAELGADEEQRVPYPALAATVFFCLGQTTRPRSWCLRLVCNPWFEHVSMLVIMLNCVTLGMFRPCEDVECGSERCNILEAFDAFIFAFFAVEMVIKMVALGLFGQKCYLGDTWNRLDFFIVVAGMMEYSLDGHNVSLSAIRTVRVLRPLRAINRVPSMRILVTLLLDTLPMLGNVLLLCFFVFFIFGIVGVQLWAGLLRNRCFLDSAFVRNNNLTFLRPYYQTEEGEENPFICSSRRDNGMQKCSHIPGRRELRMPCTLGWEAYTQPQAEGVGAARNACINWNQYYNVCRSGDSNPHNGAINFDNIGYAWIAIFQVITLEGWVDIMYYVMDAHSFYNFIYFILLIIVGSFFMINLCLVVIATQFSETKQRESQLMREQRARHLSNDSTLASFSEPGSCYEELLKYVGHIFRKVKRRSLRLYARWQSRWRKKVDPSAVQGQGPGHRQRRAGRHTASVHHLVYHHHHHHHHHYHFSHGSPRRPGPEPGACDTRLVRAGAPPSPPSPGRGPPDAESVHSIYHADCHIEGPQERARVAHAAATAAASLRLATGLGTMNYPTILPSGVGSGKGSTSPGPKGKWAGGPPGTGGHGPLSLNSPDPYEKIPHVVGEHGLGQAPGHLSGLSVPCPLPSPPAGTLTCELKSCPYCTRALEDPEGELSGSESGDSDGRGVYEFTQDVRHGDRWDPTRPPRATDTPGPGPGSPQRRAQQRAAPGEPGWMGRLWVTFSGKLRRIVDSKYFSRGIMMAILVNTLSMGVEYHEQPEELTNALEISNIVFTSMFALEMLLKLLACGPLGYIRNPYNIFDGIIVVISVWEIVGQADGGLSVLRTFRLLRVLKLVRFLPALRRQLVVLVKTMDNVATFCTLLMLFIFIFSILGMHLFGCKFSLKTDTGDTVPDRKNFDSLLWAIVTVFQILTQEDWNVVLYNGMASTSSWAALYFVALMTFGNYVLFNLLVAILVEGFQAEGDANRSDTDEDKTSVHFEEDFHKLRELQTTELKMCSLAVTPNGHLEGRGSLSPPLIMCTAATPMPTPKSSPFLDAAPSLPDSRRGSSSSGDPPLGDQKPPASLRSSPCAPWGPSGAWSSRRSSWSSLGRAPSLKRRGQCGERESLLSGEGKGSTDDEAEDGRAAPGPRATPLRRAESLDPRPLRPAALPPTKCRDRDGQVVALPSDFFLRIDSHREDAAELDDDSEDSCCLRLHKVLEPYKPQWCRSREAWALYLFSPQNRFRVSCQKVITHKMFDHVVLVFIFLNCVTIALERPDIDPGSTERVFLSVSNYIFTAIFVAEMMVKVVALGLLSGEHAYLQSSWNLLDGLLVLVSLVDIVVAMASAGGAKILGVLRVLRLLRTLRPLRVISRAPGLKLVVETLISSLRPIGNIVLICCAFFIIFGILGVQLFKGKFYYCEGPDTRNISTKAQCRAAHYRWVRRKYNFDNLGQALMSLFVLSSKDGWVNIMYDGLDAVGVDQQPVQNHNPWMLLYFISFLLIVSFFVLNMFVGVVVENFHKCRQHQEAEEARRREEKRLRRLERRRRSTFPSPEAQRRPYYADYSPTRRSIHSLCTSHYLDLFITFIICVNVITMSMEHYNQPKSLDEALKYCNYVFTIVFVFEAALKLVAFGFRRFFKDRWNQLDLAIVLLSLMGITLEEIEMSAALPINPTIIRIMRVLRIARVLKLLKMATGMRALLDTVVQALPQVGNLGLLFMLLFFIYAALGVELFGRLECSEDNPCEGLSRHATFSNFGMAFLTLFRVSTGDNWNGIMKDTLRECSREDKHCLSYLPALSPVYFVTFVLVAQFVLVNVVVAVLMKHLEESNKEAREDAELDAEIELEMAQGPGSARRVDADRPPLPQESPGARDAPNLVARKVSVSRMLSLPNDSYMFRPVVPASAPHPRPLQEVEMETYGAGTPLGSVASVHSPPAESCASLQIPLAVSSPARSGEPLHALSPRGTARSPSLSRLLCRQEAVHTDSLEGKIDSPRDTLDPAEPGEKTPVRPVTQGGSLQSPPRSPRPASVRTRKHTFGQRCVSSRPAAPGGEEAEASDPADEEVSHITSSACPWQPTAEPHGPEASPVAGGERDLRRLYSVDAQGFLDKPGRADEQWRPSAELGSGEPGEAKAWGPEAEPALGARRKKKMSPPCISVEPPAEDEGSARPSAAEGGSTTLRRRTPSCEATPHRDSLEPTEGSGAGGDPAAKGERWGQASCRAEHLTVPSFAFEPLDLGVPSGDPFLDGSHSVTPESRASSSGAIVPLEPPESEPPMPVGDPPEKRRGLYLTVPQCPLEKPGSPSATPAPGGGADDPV
Method: as §1, §2

Human Cav2.2 channels = molecular target: T3, Human Cav2.2 channels (Homo sapiens, UniProt Q00975); test: Block of Cav2.2 (N-type) channels expressed in HEK293 cells; type: cell-based; settings: for inhibition at 10 µM / inhibition at 30 µM: HEK293; for inhibition at 10 µM: read-out: Cav 2.2 % Inh @ 10 μM; for inhibition at 30 µM: read-out: Cav 2.2 % Inh @ 30 μM; for IC50: read-out: Cav 2.2 IC50
T3 construct: expressed in transfected cells
Procedure, shortened: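 HEK293 cells co-expressing Cav2.2 with α2δ, β subunits and Kir2.3. Fluo-4 calcium influx: 30 min compound incubation at 25 °C in 4 mM (resting) or 12, 25 or 30 mM K+ (open/inactivated), then 70 mM K+ depolarisation. IonWorks HT barium-current patch clamp: 5 min compound, 2 Hz train of twenty 25 ms steps to +20 mV, first versus 20th pulse block.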

IC50 [2] [nM]	IC50 [3] [nM]	inhibition at 10 µM (Human Cav2.2 channels) [%]	inhibition at 30 µM (Human Cav2.2 channels) [%]	IC50 (Human Cav2.2 channels) [nM]	Compound	selective for T-type over L-type channels [1]
50	70	99	103	990	CC(C)(C)C(=O)Nc1cc(C(=O)N2CCN(c3cc(C(C)(C)C)cc(C(C)(C)C)c3)CC2)ccn1 [Compound 22, N-(4-(4-(3,5-di-tert-butylphenyl)piperazine-1-carbonyl)pyridin-2-yl)pivalamide]	–
1490	2230	107	98	850	CCOc1ncccc1C(=O)N1CCN(c2cc(C(C)(C)C)cc(C(C)(C)C)c2)CC1 [Compound 38, (4-(3,5-di-tert-butylphenyl)piperazin-1-yl)(2-ethoxypyridin-3-yl)methanone]	–
1520	1880	102	105	1660	Cc1cccc(C(=O)N2CCN(c3cc(C(C)(C)C)cc(C(C)(C)C)c3)CC2)n1 [Compound 49, (4-(3,5-di-tert-butylphenyl)piperazin-1-yl)(6-methylpyridin-2-yl)methanone]	–
960	1800	97	101	1080	CCSc1ncccc1C(=O)N1CCN(c2cc(C(C)(C)C)cc(C(C)(C)C)c2)CC1 [Compound 45, (4-(3,5-di-tert-butylphenyl)piperazin-1-yl)(2-(ethylthio)pyridin-3-yl)methanone]	–
370	610	103	103	1480	CC(C)(C)c1cc(N2CCN(C(=O)c3ccccc3)CC2)cc(C(C)(C)C)c1 [Compound 48, (4-(3,5-di-tert-butylphenyl)piperazin-1-yl)(phenyl)methanone]	–
2340	2520	97	95	830	CCn1nc(C)cc1C(=O)N1CCN(c2cc(C(C)(C)C)cc(C(C)(C)C)c2)CC1 [Compound 33, (4-(3,5-di-tert-butylphenyl)piperazin-1-yl)(1-ethyl-3-methyl-1H-pyrazol-5-yl)methanone]	–

More lines, now with the values behind:

Compound	IC50 [2] [nM]	IC50 [3] [nM]	inhibition at 10 µM (Human Cav2.2 channels) [%]	inhibition at 30 µM (Human Cav2.2 channels) [%]	IC50 (Human Cav2.2 channels) [nM]	selective for T-type over L-type channels [1]
COCC(=O)O[C@]1(CCN(C)CCCc2nc3ccccc3[nH]2)CCc2cc(F)ccc2[C@@H]1C(C)C [Mibefradil]	–	–	–	–	–	10-30 fold
CC(C)(C)c1cc(N2CCN(C(=O)c3ccc(F)cc3)CC2)cc(C(C)(C)C)c1 [Compound 4, (4-(3,5-di-tert-butylphenyl)piperazin-1-yl)(4-fluorophenyl)methanone]	890	790	92	97	2210	–
CC(C)(C)C(=O)Nc1ncccc1C(=O)N1CCN(c2cc(C(C)(C)C)cc(C(C)(C)C)c2)CC1 [Compound 8, N-(3-(4-(3,5-di-tert-butylphenyl)piperazine-1-carbonyl)pyridin-2-yl)pivalamide]	550	710	94	95	650	–
Cc1ccc(OCC(=O)N2CCN(c3cc(C(C)(C)C)cc(C(C)(C)C)c3)CC2)c(C)c1 [Compound 14, 1-(4-(3,5-di-tert-butylphenyl)piperazin-1-yl)-2-(2,4-dimethylphenoxy)ethanone]	1280	1110	86	93	1370	–
CC(C)(C)c1cc(N2CCN(C(=O)c3ccc(F)c(C(F)(F)F)c3)CC2)cc(C(C)(C)C)c1 [Compound 16, (4-(3,5-di-tert-butylphenyl)piperazin-1-yl)(4-fluoro-3-(trifluoromethyl)phenyl)methanone]	680	690	96	90	1460	–
Cc1cc(C(=O)N2CCN(c3cc(C(C)(C)C)cc(C(C)(C)C)c3)CC2)n(C(C)(C)C)n1 [Compound 10, (1-tert-butyl-3-methyl-1H-pyrazol-5-yl)(4-(3,5-di-tert-butylphenyl)piperazin-1-yl)methanone]	1070	1310	96	104	370	–
